Molecular target: T1, Delta-type opioid receptor (Homo sapiens, UniProt P41143)
Assay: Antagonist activity at human delta opioid receptor expressed in CHO cells assessed as inhibition of SNC80-induced [35S]GTPgammaS binding after 60 mins by scintillation counting
Type: functional, cell-based
Conditions: read-out: IC50; call rule not given here

T1 sequence (P41143 whole entry): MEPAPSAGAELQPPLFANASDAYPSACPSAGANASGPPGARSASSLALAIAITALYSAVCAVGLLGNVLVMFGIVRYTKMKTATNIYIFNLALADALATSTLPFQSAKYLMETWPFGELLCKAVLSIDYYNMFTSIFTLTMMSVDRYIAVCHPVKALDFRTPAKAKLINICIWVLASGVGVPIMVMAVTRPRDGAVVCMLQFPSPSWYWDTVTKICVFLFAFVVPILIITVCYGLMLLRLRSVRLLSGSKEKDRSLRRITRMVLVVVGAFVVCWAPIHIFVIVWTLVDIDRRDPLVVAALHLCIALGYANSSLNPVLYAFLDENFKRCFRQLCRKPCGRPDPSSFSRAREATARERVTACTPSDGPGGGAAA

| Structure (SMILES) | IC50 [nM] |
| --- | --- |
| COc1ccc(-c2ccc(CCNC(=O)c3ccc4c(c3)C3(C)CCN(CC5CC5)C(C4)C3C)cc2)cc1OC (racemic) | 70 |

Molecular target: T2, Mu-type opioid receptor (Homo sapiens, UniProt P35372)
Assay: Antagonist activity at human mu opioid receptor expressed in CHO cells assessed as inhibition of DAMGO-induced [35S]GTPgammaS binding after 60 mins by scintillation counting
Type: functional, cell-based
Conditions: not given

T2 sequence (P35372 whole entry): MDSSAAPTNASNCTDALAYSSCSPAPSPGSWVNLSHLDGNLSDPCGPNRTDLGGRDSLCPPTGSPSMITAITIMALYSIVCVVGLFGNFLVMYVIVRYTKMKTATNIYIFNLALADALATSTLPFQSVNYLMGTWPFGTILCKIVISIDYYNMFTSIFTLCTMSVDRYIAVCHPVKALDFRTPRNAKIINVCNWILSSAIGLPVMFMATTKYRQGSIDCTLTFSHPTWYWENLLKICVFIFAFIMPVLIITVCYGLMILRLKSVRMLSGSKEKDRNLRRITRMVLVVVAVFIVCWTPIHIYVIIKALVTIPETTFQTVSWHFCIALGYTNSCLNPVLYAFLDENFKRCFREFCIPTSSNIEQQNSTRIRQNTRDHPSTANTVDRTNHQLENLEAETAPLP

| Structure (SMILES) | IC50 [nM] |
| --- | --- |
| COc1ccc(-c2ccc(CCNC(=O)c3ccc4c(c3)C3(C)CCN(CC5CC5)C(C4)C3C)cc2)cc1OC (racemic) | 29 |

Molecular target: T2, Mu-type opioid receptor
Assay: Partial agonist activity at human mu opioid receptor expressed in CHO cells assessed as [35S]GTPgammaS binding after 60 mins by scintillation counting relative to untreated-control
Type: functional, cell-based
Conditions: not given

| Structure (SMILES) | Emax [%] |
| --- | --- |
| COc1ccc(-c2ccc(CCNC(=O)c3ccc4c(c3)C3(C)CCN(CC5CC5)C(C4)C3C)cc2)cc1OC (racemic) | 32 |

Molecular target: T3, Kappa-type opioid receptor (Homo sapiens, UniProt P41145)
Assay: Displacement of [3H]U69,593 from human kappa opioid receptor expressed in CHO cells after 60 mins by scintillation counting
Type: cell-based
Conditions: not given

T3 sequence (P41145 whole entry): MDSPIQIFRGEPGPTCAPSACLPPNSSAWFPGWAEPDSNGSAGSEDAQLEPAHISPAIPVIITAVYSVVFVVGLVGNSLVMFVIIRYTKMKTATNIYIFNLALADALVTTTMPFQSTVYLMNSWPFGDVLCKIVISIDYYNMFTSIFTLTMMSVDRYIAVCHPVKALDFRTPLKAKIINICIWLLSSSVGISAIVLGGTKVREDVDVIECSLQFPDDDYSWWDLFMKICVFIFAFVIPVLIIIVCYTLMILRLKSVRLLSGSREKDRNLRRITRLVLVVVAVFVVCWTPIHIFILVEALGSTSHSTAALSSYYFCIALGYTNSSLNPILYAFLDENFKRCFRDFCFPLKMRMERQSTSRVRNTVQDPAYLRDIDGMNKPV

| Structure (SMILES) | Ki [nM] |
| --- | --- |
| COc1ccccc1-c1ccc(CCNC(=O)c2ccc3c(c2)C2(C)CCN(CC4CC4)C(C3)C2C)cc1 (racemic) | 0.38 |
| CC1C2Cc3ccc(C(=O)NCCc4ccc(-c5cccc(O)c5)cc4)cc3C1(C)CCN2CC1CC1 (racemic) | 1.3 |
| CC1C2Cc3ccc(C(=O)NCCc4ccc(-c5ccc(OC(F)(F)F)cc5)cc4)cc3C1(C)CCN2CC1CC1 (racemic) | 5.2 |
| CC1C2Cc3ccc(C(=O)NCCc4ccc(-c5ccc(OC(F)F)cc5)cc4)cc3C1(C)CCN2CC1CC1 (racemic) | 2.7 |
| CC1C2Cc3ccc(C(=O)NCCc4ccc5ccccc5c4)cc3C1(C)CCN2CC1CC1 (racemic) | 0.2 |
| COc1ccc(-c2ccc(CCNC(=O)c3ccc4c(c3)C3(C)CCN(CC5CC5)C(C4)C3C)cc2)cc1OC (racemic) | 1.3 |
| CC1C2Cc3ccc(O)cc3C1(C)CCN2CC1CC1 (racemic) | 0.07 |
| COc1ccc(-c2ccc(CCNC(=O)c3ccc4c(c3)C3(C)CCN(CC5CC5)C(C4)C3C)cc2)cc1 (racemic) | 1.5 |

Molecular target: T3, Kappa-type opioid receptor
Assay: Antagonist activity at human kappa opioid receptor expressed in CHO cells assessed as inhibition of U50,488-induced [35S]GTPgammaS binding after 60 mins by scintillation counting
Type: functional, cell-based
Conditions: not given

| Structure (SMILES) | IC50 |
| --- | --- |
| COc1ccc(-c2ccc(CCNC(=O)c3ccc4c(c3)C3(C)CCN(CC5CC5)C(C4)C3C)cc2)cc1OC (racemic) | Not Active |

Species on record: Homo sapiens
Assay: Selectivity ratio of Ki for human kappa opioid receptor to Ki for human mu opioid receptor
Conditions: not given

| Structure (SMILES) | Ratio Ki |
| --- | --- |
| COc1ccccc1-c1ccc(CCNC(=O)c2ccc3c(c2)C2(C)CCN(CC4CC4)C(C3)C2C)cc1 (racemic) | 3 |
| CC1C2Cc3ccc(C(=O)NCCc4ccc(-c5cccc(O)c5)cc4)cc3C1(C)CCN2CC1CC1 (racemic) | 62 |
| CC1C2Cc3ccc(C(=O)NCCc4ccc(-c5ccc(OC(F)(F)F)cc5)cc4)cc3C1(C)CCN2CC1CC1 (racemic) | 3 |
| CC1C2Cc3ccc(C(=O)NCCc4ccc(-c5ccc(OC(F)F)cc5)cc4)cc3C1(C)CCN2CC1CC1 (racemic) | 9 |
| CC1C2Cc3ccc(C(=O)NCCc4ccc5ccccc5c4)cc3C1(C)CCN2CC1CC1 (racemic) | 1 |
| COc1ccc(-c2ccc(CCNC(=O)c3ccc4c(c3)C3(C)CCN(CC5CC5)C(C4)C3C)cc2)cc1OC (racemic) | 183 |
| COc1ccc(-c2ccc(CCNC(=O)c3ccc4c(c3)C3(C)CCN(CC5CC5)C(C4)C3C)cc2)cc1 (racemic) | 18 |

Molecular target: T1, Delta-type opioid receptor
Assay: Partial agonist activity at human delta opioid receptor expressed in CHO cells assessed as [35S]GTPgammaS binding after 60 mins by scintillation counting
Type: functional, cell-based
Conditions: not given

| Structure (SMILES) | EC50 [nM] |
| --- | --- |
| COc1ccc(-c2ccc(CCNC(=O)c3ccc4c(c3)C3(C)CCN(CC5CC5)C(C4)C3C)cc2)cc1OC (racemic) | 6.2 |

Molecular target: T2, Mu-type opioid receptor
Assay: Partial agonist activity at human mu opioid receptor expressed in CHO cells assessed as [35S]GTPgammaS binding after 60 mins by scintillation counting
Type: functional, cell-based
Conditions: not given

| Structure (SMILES) | EC50 [nM] |
| --- | --- |
| COc1ccc(-c2ccc(CCNC(=O)c3ccc4c(c3)C3(C)CCN(CC5CC5)C(C4)C3C)cc2)cc1OC (racemic) | 1.6 |

Molecular target: T1, Delta-type opioid receptor
Assay: Displacement of [3H]Naltrindole from human delta opioid receptor expressed in CHO cells after 3 hrs by scintillation counting
Type: cell-based
Conditions: not given

| Structure (SMILES) | Ki [nM] |
| --- | --- |
| COc1ccccc1-c1ccc(CCNC(=O)c2ccc3c(c2)C2(C)CCN(CC4CC4)C(C3)C2C)cc1 (racemic) | 0.84 |
| CC1C2Cc3ccc(C(=O)NCCc4ccc(-c5cccc(O)c5)cc4)cc3C1(C)CCN2CC1CC1 (racemic) | 1.2 |
| CC1C2Cc3ccc(C(=O)NCCc4ccc(-c5ccc(OC(F)(F)F)cc5)cc4)cc3C1(C)CCN2CC1CC1 (racemic) | 6.6 |
| CC1C2Cc3ccc(C(=O)NCCc4ccc(-c5ccc(OC(F)F)cc5)cc4)cc3C1(C)CCN2CC1CC1 (racemic) | 0.8 |
| CC1C2Cc3ccc(C(=O)NCCc4ccc5ccccc5c4)cc3C1(C)CCN2CC1CC1 (racemic) | 0.9 |
| COc1ccc(-c2ccc(CCNC(=O)c3ccc4c(c3)C3(C)CCN(CC5CC5)C(C4)C3C)cc2)cc1OC (racemic) | 1.5 |
| CC1C2Cc3ccc(O)cc3C1(C)CCN2CC1CC1 (racemic) | 2 |
| COc1ccc(-c2ccc(CCNC(=O)c3ccc4c(c3)C3(C)CCN(CC5CC5)C(C4)C3C)cc2)cc1 (racemic) | 0.18 |

Molecular target: T2, Mu-type opioid receptor
Assay: Antagonist activity at human mu opioid receptor expressed in CHO cells assessed as inhibition of DAMGO-induced [35S]GTPgammaS binding after 60 mins by scintillation counting relative to untreated-control
Type: functional, cell-based
Conditions: not given

| Structure (SMILES) | Imax [%] |
| --- | --- |
| COc1ccc(-c2ccc(CCNC(=O)c3ccc4c(c3)C3(C)CCN(CC5CC5)C(C4)C3C)cc2)cc1OC (racemic) | 70 |

Molecular target: T3, Kappa-type opioid receptor
Assay: Agonist activity at human kappa opioid receptor expressed in CHO cells assessed as [35S]GTPgammaS binding after 60 mins by scintillation counting
Type: functional, cell-based
Conditions: not given

| Structure (SMILES) | EC50 [nM] |
| --- | --- |
| COc1ccc(-c2ccc(CCNC(=O)c3ccc4c(c3)C3(C)CCN(CC5CC5)C(C4)C3C)cc2)cc1OC (racemic) | 3 |

Species on record: Homo sapiens
Assay: Selectivity ratio of Ki for human delta opioid receptor to Ki for human mu opioid receptor
Conditions: not given

| Structure (SMILES) | Ratio Ki |
| --- | --- |
| COc1ccccc1-c1ccc(CCNC(=O)c2ccc3c(c2)C2(C)CCN(CC4CC4)C(C3)C2C)cc1 (racemic) | 7 |
| CC1C2Cc3ccc(C(=O)NCCc4ccc(-c5cccc(O)c5)cc4)cc3C1(C)CCN2CC1CC1 (racemic) | 57 |
| CC1C2Cc3ccc(C(=O)NCCc4ccc(-c5ccc(OC(F)(F)F)cc5)cc4)cc3C1(C)CCN2CC1CC1 (racemic) | 4 |
| CC1C2Cc3ccc(C(=O)NCCc4ccc(-c5ccc(OC(F)F)cc5)cc4)cc3C1(C)CCN2CC1CC1 (racemic) | 3 |
| CC1C2Cc3ccc(C(=O)NCCc4ccc5ccccc5c4)cc3C1(C)CCN2CC1CC1 (racemic) | 5 |
| COc1ccc(-c2ccc(CCNC(=O)c3ccc4c(c3)C3(C)CCN(CC5CC5)C(C4)C3C)cc2)cc1OC (racemic) | 211 |
| COc1ccc(-c2ccc(CCNC(=O)c3ccc4c(c3)C3(C)CCN(CC5CC5)C(C4)C3C)cc2)cc1 (racemic) | 2 |

Molecular target: T2, Mu-type opioid receptor
Assay: Displacement of [3H]DAMGO from human mu opioid receptor expressed in CHO cells after 60 mins by scintillation counting
Type: cell-based
Conditions: not given

| Structure (SMILES) | Ki [nM] |
| --- | --- |
| COc1ccccc1-c1ccc(CCNC(=O)c2ccc3c(c2)C2(C)CCN(CC4CC4)C(C3)C2C)cc1 (racemic) | 0.12 |
| CC1C2Cc3ccc(C(=O)NCCc4ccc(-c5cccc(O)c5)cc4)cc3C1(C)CCN2CC1CC1 (racemic) | 0.021 |
| CC1C2Cc3ccc(C(=O)NCCc4ccc(-c5ccc(OC(F)(F)F)cc5)cc4)cc3C1(C)CCN2CC1CC1 (racemic) | 1.8 |
| CC1C2Cc3ccc(C(=O)NCCc4ccc(-c5ccc(OC(F)F)cc5)cc4)cc3C1(C)CCN2CC1CC1 (racemic) | 0.3 |
| CC1C2Cc3ccc(C(=O)NCCc4ccc5ccccc5c4)cc3C1(C)CCN2CC1CC1 (racemic) | 0.18 |
| COc1ccc(-c2ccc(CCNC(=O)c3ccc4c(c3)C3(C)CCN(CC5CC5)C(C4)C3C)cc2)cc1OC (racemic) | 0.0071 |
| COc1ccc(-c2ccc(CCNC(=O)c3ccc4c(c3)C3(C)CCN(CC5CC5)C(C4)C3C)cc2)cc1 (racemic) | 0.084 |

Molecular target: T1, Delta-type opioid receptor
Assay: Partial agonist activity at human delta opioid receptor expressed in CHO cells assessed as [35S]GTPgammaS binding after 60 mins by scintillation counting relative to untreated control
Type: functional, cell-based
Conditions: not given

| Structure (SMILES) | Emax [%] |
| --- | --- |
| COc1ccc(-c2ccc(CCNC(=O)c3ccc4c(c3)C3(C)CCN(CC5CC5)C(C4)C3C)cc2)cc1OC (racemic) | 73 |
